Assay results: patent publication US4910208A, “Method of inhibiting leukotriene biosynthesis by oral administration of p-aminophenols or derivatives thereof” (E. R. Squibb & Sons, Inc., priority 1988, dated 1990)
Where two headings read alike, the source gives them in different places.

Columns and labels:
[1] = tested on: SRS-mediated bronchoconstriction; assay: Standard assay for inhibitors of SRS-mediated bronchoconstriction in sensitized guinea pigs; format: in vivo, guinea pig (male Hartly); details: for ED50: Cavia porcellus, po, 1 h; for antiasthmatic activity when administered orally: oral
Procedure: Guinea pigs sensitized to ovalbumin and challenged intravenously with this antigen in the presence of the cyclooxygenase inhibitor, indomethacin (IM), an antihistamine, methapyriline, and a beta-antagonist, propranolol,undergo a delayed (3-13 minutes) bronchospasm, presumed due to the synthesis and release of SRS (leukotriene C, D, and E). A Buxco respiratory mechanics analyzer is used to evaluate the in vivo efficacy of inhibitors of the lipoxygenase pathway in this model of SRS-mediated bronchoconstriction. This system monitors pulmonary air flow, through use of a whole body plethysomgraph, and transpulmonary pressure, from tracheal and intrapleural catheters. Tidal volume is derived from the flow signal by integration, and airway resistance (R) and dynamic compliance (^C dyn) are continuously computed by the system from the primary flow, volume, and pressure parameters. In addition, the system continuously monitors blood pressure and heart rate.
Male Hartly guinea pigs (200 g) ar sensitized by injecting ovalbumin (OA) (10 mg/kg) (each injection also contains 16 mg Amphojel) ip o days 0 and 2. These animals are normally used on days 10-18 following initial sensitization.
On the test day animals are anesthetized by ip injection of urethane (1.2-1.5 g/kg. The jugular vein and carotid artery are catheterized using intramedic PR50 tubing. The trachea is catheterized using intramedic PE240 tubing. Spontaneous respiration is arrested by injecting succinyl choline (2.0 mg/kg, iv) into the jugular vein, and the animal is artificially respirated at 48 breaths/minute with a volume of 4.0 ml/breath. Intramedic PE200 tubing is inserted through the chest wall into the intrapleural space, and the tracheal (by sidearm attachment) and intrapleural cannulas are attached to a single pressure transducer in order to obtain the transpulmonary pressure. The standard protocol requires an initial injection of indomethacin (meglumine salt) (10 mg/kg, iv). Five minutes later antihistamine (methapyrilene, 2 mg/kg, iv) is given, followed one minute later by propranolol (0.1 mg/kg, iv) to induce leukotriene induced bronchoconstriction with no histamine-induced bronchoconstriction and no beta-agonistic bronchoconstriction. Respiratory parameters are then allowed to stabilize for 5-15 minutes. Drugs are tested for oral activity by giving the compound by gavage to 18 hour fasted animals one hour prior to anesthetization. At restabilization, base lines are recorded by the computer for all parameters. To induce bronchoconstriction, a challenge dose of OA (0.4 mg/kg, iv) is given.
Results are expressed as % of baseline values after antigen challenge for R and ^C dyn, and percent inhibition is calculated by comparing % changes in baseline values between control (vehicle) and drug treated test groups.
Statistical significance is determined using a two tailed, unpaired T-test. Drug effects with p<0.05 will be considered significant.
Test compounds were evaluated for their ability to inhibit SRS-mediated changes in dynamic compliance (^C dyn) and resistance (R) as compared to the medicated (indomethacin-methapyrilenepropranolol) control group.

[2] = tested on: SRS-mediated bronchoconstriction; assay: as above; format: in vivo, guinea pig (male Hartly); details: 10 mg/kg, iv less than one minute before OA challenge
[3] = 5.0 mg/kg P.O., one hour before i.v. antigen challenge
[4] = 12.5 mg/kg P.O., one hour before i.v. antigen challenge
[5] = 25.0 mg/kg P.O., one hour before i.v. antigen challenge
[6] = 50.0 mg/kg P.O., one hour before i.v. antigen challenge
[7] = P.O., one hour before i.v. antigen challenge, read-out: ED50^Cdyn (dose producing 50% inhibition of SRS-mediated changes in dynamic compliance)
[8] = P.O., one hour before i.v. antigen challenge, read-out: ED50^R (dose producing 50% inhibition of SRS-mediated changes in resistance)
[9] = 3.0 mg/kg P.O., one hour before i.v. antigen challenge
[10] = 6.0 mg/kg P.O., one hour before i.v. antigen challenge
[11] = 9.0 mg/kg P.O., one hour before i.v. antigen challenge

Compound | Dynamic Compliance (Cdyn), % of baseline following antigen challenge (mean ± S.E.) [1, 4] | Dynamic Compliance (Cdyn), Inhibition (%) [1, 4] | Resistance (R), % of baseline following antigen challenge (mean ± S.E.) [1, 4] | Resistance (R), Inhibition (%) [1, 4] | Dynamic Compliance (Cdyn), % of baseline following antigen challenge (mean ± S.E.) [1, 5] | Dynamic Compliance (Cdyn), Inhibition (%) [1, 5] | Resistance (R), % of baseline following antigen challenge (mean ± S.E.) [1, 5] | Resistance (R), Inhibition (%) [1, 5] | Dynamic Compliance (Cdyn), % of baseline following antigen challenge (mean ± S.E.) [1, 6] | Dynamic Compliance (Cdyn), Inhibition (%) [1, 6] | Resistance (R), % of baseline following antigen challenge (mean ± S.E.) [1, 6] | Resistance (R), Inhibition (%) [1, 6] | ED50 [1, 7] | ED50 [1, 8] | antiasthmatic activity when administered orally [1] | also measured
COc1ccc2cc(Nc3ccc(O)cc3)ccc2c1 [Example 2, 4-[(6-Methoxy-2-naphthyl)amino]phenol] | 44 ± 5 % of Baseline | 33% | 231 ± 39 % of Baseline | 57% | 62 ± 7 % of Baseline | 52% | 194 ± 42 % of Baseline | 69% | 66 ± 4 % of Baseline | 57% | 149 ± 11 % of Baseline | 84% | 23.8 mg/kg | 6 mg/kg | exhibit antiasthmatic activity | Dynamic Compliance (Cdyn), % of baseline following antigen challenge (mean ± S.E.) [1, 3]: 23 ± 7 % of Baseline; Dynamic Compliance (Cdyn), Inhibition (%) [1, 3]: 3%; Resistance (R), % of baseline following antigen challenge (mean ± S.E.) [1, 3]: 335 ± 74 % of Baseline; Resistance (R), Inhibition (%) [1, 3]: 23%; oral activity ([1]; P.O., one hour before antigen challenge): orally active; ED50^Cdyn (dose producing 50% inhibition of SRS-mediated changes in dynamic compliance) ([1]; P.O., one hour before i.v. antigen challenge): 23.8(14.1-51.7) mg/kg
COc1ccc2cc(N(C)c3ccc(O)cc3)ccc2c1 [Example 17] | 64 ± 7 % of Baseline | 56% | 136 ± 10 % of Baseline | 88% | 57 ± 10 % of Baseline | 47% | 149 ± 23 % of Baseline | 82% | – | – | – | – | 6 to 9 mg/kg | 6 to 9 mg/kg | exhibit antiasthmatic activity | Dynamic Compliance (Cdyn), % of baseline following antigen challenge (mean ± S.E.) [1, 9]: 19 ± 11 % of Baseline; Dynamic Compliance (Cdyn), Inhibition (%) [1, 9]: 0%; Resistance (R), % of baseline following antigen challenge (mean ± S.E.) [1, 9]: 467 ± 134 % of Baseline; Resistance (R), Inhibition (%) [1, 9]: 0%; Dynamic Compliance (Cdyn), % of baseline following antigen challenge (mean ± S.E.) [1, 10]: 31 ± 20 % of Baseline; Dynamic Compliance (Cdyn), Inhibition (%) [1, 10]: 15%; Resistance (R), % of baseline following antigen challenge (mean ± S.E.) [1, 10]: 374 ± 132 % of Baseline; Resistance (R), Inhibition (%) [1, 10]: 1%; Dynamic Compliance (Cdyn), % of baseline following antigen challenge (mean ± S.E.) [1, 11]: 64 ± 8 % of Baseline; Dynamic Compliance (Cdyn), Inhibition (%) [1, 11]: 56%; Resistance (R), % of baseline following antigen challenge (mean ± S.E.) [1, 11]: 141 ± 28 % of Baseline; Resistance (R), Inhibition (%) [1, 11]: 85%; inhibition of antigen-induced bronchoconstriction ([1]; PO one hour before antigen challenge): significantly inhibited
CCCc1c(OCC(O)COc2ccc3c(=O)cc(C(=O)O)oc3c2CCC)ccc(C(C)=O)c1O (stereo not shown) [FPL-55712] | – | – | – | – | – | – | – | – | – | – | – | – | – | – | – | inhibition of bronchoconstriction as measured by effects on R and Cdyn [2]: 100%
COc1ccc(Nc2ccc(O)cc2)c(CO)c1 [SQ 30,624, 2-[(4-Hydroxyphenyl)amino]-5-methoxybenzenemethanol, reference compound] | – | – | – | – | – | – | – | – | 4 ± 3 % of Baseline | 0% | 386 ± 64 % of Baseline | 15% | – | – | did not have antiasthmatic activity | oral activity ([1]; dose of 50 mg/kg P.O.): orally inactive
